ChEMBL document CHEMBL1201862, “PubChem BioAssay data set” (2004)
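Grown in 96-well plates, cells were treated for 48 hours with each compound at five concentrations. Insufficient inhibition: endpoint recorded as highest concentration tested. Here, GI50 denotes the concentration required for 50% inhibition of growth.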 The source made the active and inactive calls. Rule as the data show it: active = GI50 up to about 1.1 µM and inactive = higher.

Columns and labels:
Experiment in all cases: DTP human tumour cell line panel, 48 h
786-0 = tested on: 786-0
A498 = tested on: A498
A549 = tested on: A549
CAKI-1 = tested on: CAKI-1
CCRF-CEM = tested on: CCRF-CEM
COLO 205 = tested on: COLO 205
DLD-1 = tested on: DLD-1
EKVX = tested on: EKVX
HCC 2998 = tested on: HCC 2998
HCT-116 = tested on: HCT-116
HCT-15 = tested on: HCT-15
HL-60 = tested on: HL-60
HOP-18 = tested on: HOP-18
HOP-62 = tested on: HOP-62
HOP-92 = tested on: HOP-92
HT-29 = tested on: HT-29
IGROV-1 = tested on: IGROV-1
K562 = tested on: K562
KM-20L2 = tested on: KM-20L2
KM12 = tested on: KM12
LOX IMVI = tested on: LOX IMVI
LXFL 529 = tested on: LXFL 529
M14 = tested on: M14
M19-MEL = tested on: M19-MEL
Malme-3M = tested on: Malme-3M
NCI-H226 = tested on: NCI-H226
NCI-H23 = tested on: NCI-H23
NCI-H460 = tested on: NCI-H460
NCI-H522 = tested on: NCI-H522
OVCAR-3 = tested on: OVCAR-3
OVCAR-4 = tested on: OVCAR-4
OVCAR-5 = tested on: OVCAR-5
OVCAR-8 = tested on: OVCAR-8
RPMI-8226 = tested on: RPMI-8226
RXF 393 = tested on: RXF 393
RXF 631 = tested on: RXF 631
SF-268 = tested on: SF-268
SF-295 = tested on: SF-295
SF-539 = tested on: SF-539
SK-MEL-28 = tested on: SK-MEL-28
SK-MEL-5 = tested on: SK-MEL-5
SK-OV-3 = tested on: SK-OV-3
SN12C = tested on: SN12C
SNB-19 = tested on: SNB-19
SNB-75 = tested on: SNB-75
SNB-78 = tested on: SNB-78
SR = tested on: SR
SW-620 = tested on: SW-620
TK-10 = tested on: TK-10
U-251 = tested on: U-251
UACC-257 = tested on: UACC-257
UO-31 = tested on: UO-31
XF498 = tested on: XF498
ACHN = tested on: ACHN
DMS-114 = tested on: DMS-114
DMS-273 = tested on: DMS-273
MOLT-4 = tested on: MOLT-4
SK-MEL-2 = tested on: SK-MEL-2
UACC-62 = tested on: UACC-62

COC(=O)C(=O)C(C(=O)C(=O)Nc1ccc(F)cc1)c1nc2ccc([N+](=O)[O-])cc2nc1O (stereo not drawn)
GI50 (786-0): > 100 µM (inactive) | GI50 (A498): > 100 µM (inactive) | GI50 (A549): > 100 µM (inactive) | GI50 (CAKI-1): > 100 µM (inactive) | GI50 (CCRF-CEM): > 100 µM (inactive) | GI50 (COLO 205): > 100 µM (inactive) | GI50 (DLD-1): > 100 µM (inactive) | GI50 (EKVX): > 100 µM (inactive) | GI50 (HCC 2998): > 100 µM (inactive) | GI50 (HCT-116): > 100 µM (inactive) | GI50 (HCT-15): > 100 µM | GI50 (HL-60): > 100 µM (inactive) | GI50 (HOP-18): > 100 µM (inactive) | GI50 (HOP-62): > 100 µM (inactive) | GI50 (HOP-92): > 100 µM (inactive) | GI50 (HT-29): > 100 µM (inactive) | GI50 (IGROV-1): > 100 µM (inactive) | GI50 (K562): > 100 µM (inactive) | GI50 (KM-20L2): > 100 µM (inactive) | GI50 (KM12): > 100 µM (inactive) | GI50 (LOX IMVI): > 100 µM (inactive) | GI50 (LXFL 529): > 100 µM (inactive) | GI50 (M14): > 100 µM (inactive) | GI50 (M19-MEL): > 100 µM (inactive) | GI50 (Malme-3M): > 100 µM (inactive) | GI50 (NCI-H226): > 100 µM (inactive) | GI50 (NCI-H23): > 100 µM (inactive) | GI50 (NCI-H460): > 100 µM (inactive) | GI50 (NCI-H522): > 100 µM (inactive) | GI50 (OVCAR-3): > 100 µM (inactive) | GI50 (OVCAR-4): > 100 µM (inactive) | GI50 (OVCAR-5): > 100 µM (inactive) | GI50 (OVCAR-8): > 100 µM (inactive) | GI50 (RPMI-8226): > 100 µM (inactive) | GI50 (RXF 393): > 100 µM (inactive) | GI50 (RXF 631): > 100 µM (inactive) | GI50 (SF-268): > 100 µM (inactive) | GI50 (SF-295): > 100 µM (inactive) | GI50 (SF-539): > 100 µM (inactive) | GI50 (SK-MEL-28): > 100 µM (inactive) | GI50 (SK-MEL-5): > 100 µM (inactive) | GI50 (SK-OV-3): > 100 µM (inactive) | GI50 (SN12C): > 100 µM (inactive) | GI50 (SNB-19): > 100 µM (inactive) | GI50 (SNB-75): > 100 µM (inactive) | GI50 (SNB-78): > 100 µM (inactive) | GI50 (SR): > 100 µM (inactive) | GI50 (SW-620): > 100 µM (inactive) | GI50 (TK-10): > 100 µM (inactive) | GI50 (U-251): > 100 µM (inactive) | GI50 (UACC-257): > 100 µM (inactive) | GI50 (UO-31): > 100 µM (inactive) | GI50 (XF498): > 100 µM (inactive)

COc1cc(/C=C2\[C@H]3c4c(c(OC)c(C)c(OC)c4OC)C[C@@H](C(=O)N2Cc2ccccc2)N3C(=O)OC(C)C)c(OC)c(C)c1OC
GI50 (786-0): > 100 µM (inactive) | GI50 (A498): > 100 µM (inactive) | GI50 (A549): > 100 µM (inactive) | GI50 (ACHN): > 100 µM (inactive) | GI50 (CCRF-CEM): 54 µM (inactive) | GI50 (COLO 205): 53.7 µM (inactive) | GI50 (DLD-1): > 100 µM (inactive) | GI50 (DMS-114): 47.5 µM (inactive) | GI50 (DMS-273): 25.9 µM (inactive) | GI50 (EKVX): 52.5 µM (inactive) | GI50 (HCC 2998): 29.6 µM (inactive) | GI50 (HCT-116): 58.7 µM (inactive) | GI50 (HL-60): 19.8 µM (inactive) | GI50 (HOP-18): > 100 µM (inactive) | GI50 (HOP-62): > 100 µM (inactive) | GI50 (HOP-92): 8.34 µM (inactive) | GI50 (HT-29): 53.2 µM (inactive) | GI50 (IGROV-1): > 100 µM (inactive) | GI50 (K562): 40 µM (inactive) | GI50 (KM-20L2): > 100 µM (inactive) | GI50 (KM12): 66.8 µM (inactive) | GI50 (LOX IMVI): > 100 µM (inactive) | GI50 (LXFL 529): 52.1 µM (inactive) | GI50 (M14): > 100 µM (inactive) | GI50 (MOLT-4): 42.9 µM (inactive) | GI50 (Malme-3M): 60.1 µM (inactive) | GI50 (NCI-H226): 6.08 µM (inactive) | GI50 (NCI-H23): 78 µM (inactive) | GI50 (NCI-H460): 5.31 µM (inactive) | GI50 (NCI-H522): 27.5 µM (inactive) | GI50 (OVCAR-3): 67.3 µM (inactive) | GI50 (OVCAR-4): 69.3 µM (inactive) | GI50 (OVCAR-5): > 100 µM (inactive) | GI50 (OVCAR-8): > 100 µM (inactive) | GI50 (RPMI-8226): 27.2 µM (inactive) | GI50 (RXF 393): > 100 µM (inactive) | GI50 (RXF 631): > 100 µM (inactive) | GI50 (SF-268): > 100 µM (inactive) | GI50 (SF-295): > 100 µM (inactive) | GI50 (SF-539): > 100 µM (inactive) | GI50 (SK-MEL-28): > 100 µM (inactive) | GI50 (SK-MEL-2): > 100 µM (inactive) | GI50 (SK-MEL-5): 48.4 µM (inactive) | GI50 (SK-OV-3): 2.52 µM (inactive) | GI50 (SN12C): 88.7 µM (inactive) | GI50 (SNB-75): > 100 µM (inactive) | GI50 (SR): 21.8 µM (inactive) | GI50 (SW-620): 54 µM (inactive) | GI50 (TK-10): 79.3 µM (inactive) | GI50 (U-251): 53.1 µM (inactive) | GI50 (UACC-257): 34 µM (inactive) | GI50 (UACC-62): 92.9 µM (inactive) | GI50 (UO-31): 66.7 µM (inactive)

COC(=O)C(CC(=O)Nc1ccc(Cl)c(Cl)c1)C(=O)C(=O)Nc1ccc(Cl)c(Cl)c1 (stereo not drawn)
GI50 (786-0): > 100 µM (inactive) | GI50 (A498): > 100 µM (inactive) | GI50 (A549): > 100 µM (inactive) | GI50 (ACHN): > 100 µM (inactive) | GI50 (CAKI-1): > 100 µM (inactive) | GI50 (CCRF-CEM): > 100 µM (inactive) | GI50 (COLO 205): > 100 µM (inactive) | GI50 (DMS-114): > 100 µM (inactive) | GI50 (DMS-273): > 100 µM (inactive) | GI50 (EKVX): > 100 µM (inactive) | GI50 (HCC 2998): > 100 µM (inactive) | GI50 (HCT-116): > 100 µM (inactive) | GI50 (HCT-15): > 100 µM | GI50 (HL-60): > 100 µM (inactive) | GI50 (HOP-18): 50.7 µM (inactive) | GI50 (HOP-62): > 100 µM (inactive) | GI50 (HOP-92): > 100 µM (inactive) | GI50 (HT-29): > 100 µM (inactive) | GI50 (IGROV-1): > 100 µM (inactive) | GI50 (K562): > 100 µM (inactive) | GI50 (KM-20L2): > 100 µM (inactive) | GI50 (KM12): > 100 µM (inactive) | GI50 (LOX IMVI): > 100 µM (inactive) | GI50 (LXFL 529): > 100 µM (inactive) | GI50 (M14): > 100 µM (inactive) | GI50 (M19-MEL): > 100 µM (inactive) | GI50 (MOLT-4): 94.6 µM (inactive) | GI50 (Malme-3M): > 100 µM (inactive) | GI50 (NCI-H226): > 100 µM (inactive) | GI50 (NCI-H23): > 100 µM (inactive) | GI50 (NCI-H460): > 100 µM (inactive) | GI50 (NCI-H522): > 100 µM (inactive) | GI50 (OVCAR-3): > 100 µM (inactive) | GI50 (OVCAR-4): > 100 µM (inactive) | GI50 (OVCAR-5): > 100 µM (inactive) | GI50 (OVCAR-8): > 100 µM (inactive) | GI50 (RPMI-8226): > 100 µM (inactive) | GI50 (RXF 393): > 100 µM (inactive) | GI50 (RXF 631): > 100 µM (inactive) | GI50 (SF-268): > 100 µM (inactive) | GI50 (SF-295): > 100 µM (inactive) | GI50 (SF-539): > 100 µM (inactive) | GI50 (SK-MEL-28): > 100 µM (inactive) | GI50 (SK-MEL-2): > 100 µM (inactive) | GI50 (SK-MEL-5): > 100 µM (inactive) | GI50 (SK-OV-3): > 100 µM (inactive) | GI50 (SN12C): > 100 µM (inactive) | GI50 (SNB-19): > 100 µM (inactive) | GI50 (SNB-75): > 100 µM (inactive) | GI50 (SNB-78): > 100 µM (inactive) | GI50 (SR): 33.3 µM (inactive) | GI50 (SW-620): > 100 µM (inactive) | GI50 (TK-10): > 100 µM (inactive) | GI50 (U-251): > 100 µM (inactive) | GI50 (UACC-257): > 100 µM (inactive) | GI50 (UACC-62): > 100 µM (inactive) | GI50 (UO-31): > 100 µM (inactive)
